Results as given in patent publication US20180360799A1, “Nitrofuran Derivatives That Induce Apoptosis in Breast Cancer Cells by Activating Protein Expression” (Oklahoma Medical Research Foundation, priority 2015, published 2018).

Experiments:
endogenous CHOP gene = assay: Endogenous CHOP mRNA by qRT-PCR in HEK293 cells; format: cell-based, human; conditions: 10 μM, 24 h
Description: The primer sequences used were: Human CHOP: SEQ ID NO: 1 F, 5′-[sequence]-3′ and SEQ ID NO: 2 R, 5′-[sequence]-3′. Human ATF4: SEQ ID NO: 3 F, 5′-[sequence]-3′ and SEQ ID NO: 4 R, 5′-[sequence]-3′. […] Human Cyclophilin A: SEQ ID NO: 7 F, 5′-[sequence]-3′ and SEQ ID NO: 8 R, 5′-[sequence]-3′. Human GAPDH: SEQ ID NO: 9 F, 5′-[sequence]-3′ and SEQ ID NO: 10 R, 5′-[sequence]-3′.

[1] = system: CHOP promoter-luciferase (CHOP-Luc) reporter; assay: CHOP-Luc reporter assay in HEK293 cells (Bright-Glo); format: cell-based, human; conditions: 10 μM, 24 h
Description: To identify compounds that activate the expression of CHOP, a HEK293 cell line stably expressing a CHOP-Luc reporter construct that faithfully reflects endogenous CHOP gene expression^21 was used to screen approximately 50,000 structurally diverse small molecules.
HEK293T CHOP-Luc cells were seeded at 7×10^3 cells/well in 384-well plates and treated with 10 μM of the library compounds the next day. After 24 h treatment, the medium was aspirated and 20 μL/well of Bright-Glo luciferase assay reagent was added. Luminescence was measured with an EnVision multilabel plate reader (PerkinElmer, Waltham, Mass., US). Hit selection was based on standard scores. The mean and standard deviation (SD) of luminescence for each compound was determined, and the standard score for each compound was then calculated as (raw measurement of a compound−mean)/SD of the plate. Compounds that increased ATP levels >3 SD compared with control wells (standard score >3) were considered hits.

HCC-38 cells = assay: Cell viability, CellTiter-Glo, HCC-38; format: cell-based; conditions: Homo sapiens, HCC38; 0.125 μM to 20 μM, CellTiter-Glo; read-out: IC50 cell viability HCC-38
Description: (§1) Given the known functions of CHOP in ER stress-induced apoptosis^16, 17 and in regulating cancer cell death,^6, 19, 20 the inventor investigated whether compound 1 affects the viability of TNBC cells. Three human TNBC cell lines, HCC-1806, HCC-1143, and HCC-38, were treated with doses of 1 ranging from 0.125 μM to 20 μM and their viability was assessed using the CellTiter-Glo assay, which measures intracellular ATP levels.
(§2) HCC-1806, HCC-1143, or HCC-38 cells were seeded at 3×10^3 cells/well in a 384-well plate and treated with compounds at the indicated concentrations. After 3 d treatment, the medium was aspirated and 20 μL/well of CellTiter-Glo reagent was added. Cell viability was measured with an EnVision multilabel plate reader. The IC50 value for cell viability of each compound was calculated with GraphPad Prism (La Jolla, Calif., US).

HCC-1806 cells = assay: Cell viability, CellTiter-Glo, HCC-1806; format: cell-based; conditions: Homo sapiens, HCC1806; 0.125 μM to 20 μM, CellTiter-Glo; read-out: IC50 cell viability HCC-1806
Description: as §1, §2

HCC-1143 cells = assay: Cell viability, CellTiter-Glo, HCC-1143; format: cell-based; conditions: Homo sapiens, HCC1143; 0.125 μM to 20 μM, CellTiter-Glo; read-out: IC50 cell viability HCC-1143
Description: as §1, §2

[2] = system: UPRE-Luciferase (UPRE-Luc) reporter; assay: UPRE-Luc reporter assay in HEK293 cells; format: cell-based, human; conditions: 3d 10 μM or Tm 1 μg/mL, 24 h
Description: (§3) FIG. 3G is a graph showing HEK293 cells stably expressing CHOP-Luc, ERSE-Luc, or UPRE-luc reporters were treated with DMSO, a 5-nitrofuran-2-amide derivative, or tunicamycin. HEK293 cells stably expressing CHOP-Luc, ERSE-Luc, or UPRE-luc reporters were treated with DMSO, compound 3d (10 μM), or Tm (1 μg/mL) for 24 h, and luciferase activity was measured using the Bright-Glo assay. Results are the means of 4 replicate wells and are representative of 3 independent experiments.
(§4) The inventor next asked whether the IRE1α and ATF6 branches of the unfolded protein response were also activated by compound 3d treatment of TNBC cells. […] XBP1 mRNA splicing, as measured by XBP1s levels, increased only slightly in the first 24 h after compound 3d treatment of HCC-1806 cells (from 11% of total XBP1 at 0 h to 15˜20% at 2˜24 h). […] Next, it was determined whether compound 3d activates the ATF6 pathway by evaluating its effect on the activity of an ER stress response elements (ERSE)-Luc reporter stably established in HEK293 cell line.
(§5) The HEK293T CHOP reporter cell line (CHOP-Luc) was previously described.^21 HEK293T cells were stably transfected with ERSE-Luciferase^25 and UPRE-Luciferase^23 reporters to generate ERSE-Luc and UPRE-Luc reporter cell lines, respectively. […] Luciferase activity was measured with a Bright-Glo kit 24 h later.

[3] = system: XBP1 mRNA splicing (IRE1α pathway); assay: XBP1 mRNA splicing by RT-PCR in HCC-1806 cells; format: cell-based, human; conditions: HCC-1806, tunicamycin 1 μg/mL, at 8 h
Description: FIG. 3E is a graph showing XBP1 mRNA levels in HCC-1806 cells treated with tunicamycin or a 5-nitrofuran-2-amide derivative compound 3d. HCC-1806 cells were treated with compound 3d (10 μM) or tunicamycin (Tm, 1 μg/mL) for the indicated times. XBP1 mRNA levels were analyzed by RT-PCR and the products were resolved by agarose gel electrophoresis. The full-length (unspliced, XBP1u) and spliced (XBP1s) forms of XBP1 mRNA are indicated. GAPDH mRNA was used as an internal control.
The percentage of XBP1s relative to total XBP1 was calculated as: (XBP1s/[XBP1s+XBP1u])×100%. The data shown are representative of 3 independent studies.
as §4, with “line. […]” for “line.”

[4] = system: ER stress response elements (ERSE)-Luc reporter; assay: ERSE-Luc reporter assay in HEK293 cells; format: cell-based, human; conditions: Tm 1 μg/mL, 24 h
Description: as §3, §4, §5

Compound | increase of mRNA level of the endogenous CHOP gene (endogenous CHOP gene) | increase of CHOP-Luc reporter activity [1] [fold] | IC50 (HCC-38 cells) [µM] | IC50 (HCC-1806 cells) [µM] | IC50 (HCC-1143 cells) [µM] | increase of UPRE-Luc luciferase activity [2] [fold] | XBP1s, percentage of total XBP1 [3] [%] | increase of ERSE-driven luciferase activity [4] [fold]
O=C(Nc1ccc(I)cc1)c1ccc([N+](=O)[O-])o1 [Compound 1, N-(4-iodophenyl)-5-nitrofuran-2-carboxamide] | up to 30 fold | 24 | 8.7 | 6.2 | 9.5 |  |  | 
tunicamycin [reference compound] |  |  |  |  |  | > 25 | ~87 | ~12
